Data: patent publication US6737383B1, “Herbicidal oxadiazolidines” (priority 1999, dated 2004)

What was measured:
rape = test: Test B pre/postemergence rape; type: in vivo, Brassica napus
How it was run: (§1)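 Test chemicals in a non-phytotoxic solvent mixture with surfactant were sprayed preemergence onto planted seeds and postemergence onto plants 2 to 18 cm tall (1- to 4-leaf stage). After twelve to sixteen days in a greenhouse, injury was visually rated against untreated controls from 0 (no effect) to 10 (complete control).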

wheat = test: Test B pre/postemergence wheat; type: in vivo, Triticum aestivum
How it was run: as §1

cocklebur = test: Test B pre/postemergence cocklebur; type: in vivo, Xanthium strumarium
How it was run: as §1

corn = test: Test B pre/postemergence corn; type: in vivo, Zea mays
How it was run: as §1

bamyardgrass = test: Test B flood test barnyardgrass; type: in vivo, Echinochloa crus-galli
How it was run: (§2)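 Each value is a visual injury score relative to controls, with 10 meaning complete control and 0 no effect. Evaluation took place twelve to sixteen days after the 2-leaf-stage plants were treated and kept in the greenhouse.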

giant foxtail = test: Test B pre/postemergence giant foxtail; type: in vivo, Setaria faberii
How it was run: as §1

crabgrass = test: Test B pre/postemergence crabgrass; type: in vivo, Digitaria sanguinalis
How it was run: as §1

velvetleaf = test: Test B pre/postemergence velvetleaf; type: in vivo, Abutilon theophrasti
How it was run: as §1

bedstraw = test: Test B pre/postemergence bedstraw; type: in vivo, Galium aparine
How it was run: as §1

morningglory = test: Test B pre/postemergence morningglory; type: in vivo, Ipomoea hederacea
How it was run: as §1

pigweed = test: Test B pre/postemergence pigweed; type: in vivo, Amaranthus retroflexus
How it was run: as §1

wild oat = test: Test B pre/postemergence wild oat; type: in vivo, Avena fatua
How it was run: as §1

sugar beet = test: Test B pre/postemergence sugar beet; type: in vivo, Beta vulgaris
How it was run: as §1

surinam grass = test: Test B pre/postemergence surinam grass; type: in vivo, Brachiaria decumbens
How it was run: as §1

rice = test: Test B flood test rice; type: in vivo, Oryza sativa
How it was run: as §2

smallflower flatsedge = test: Test B flood test smallflower flatsedge; type: in vivo, Cyperus difformis
How it was run: as §2

soybean = test: Test B pre/postemergence soybean; type: in vivo, Glycine max
How it was run: as §1

purple nutsedge = test: Test B pre/postemergence purple nutsedge; type: in vivo, Cyperus rotundus; conditions: Preemergence
How it was run: as §1

blackgrass = test: Test B pre/postemergence blackgrass; type: in vivo, Alopecurus myosuroides
How it was run: as §1

duck salad = test: Test B flood test duck salad; type: in vivo, Heteranthera limosa
How it was run: as §2

[1] = Postemergence, Rate 250 g/ha, scale 0 to 10, 0 no effect, 10 complete control
[2] = Postemergence, Rate 1000 g/ha, scale 0 to 10 (0 no effect, 10 complete control)
[3] = Preemergence, Rate 125 g/ha, scale 0 to 10 (0 no effect, 10 complete control)
[4] = Preemergence, Rate 250 g/ha, scale of 0 to 10 where 0 is no effect and 10 is complete control
[5] = Preemergence, Rate 500 g/ha, scale 0 (no effect) to 10 (complete control)
[6] = Rate 125 g/ha, Postemergence, scale 0 to 10, 0 no effect, 10 complete control
[7] = Rate 500 g/ha, Postemergence, 0 to 10 scale (0 no effect, 10 complete control)
[8] = Rate 1000 g/ha, Preemergence, scale 0 to 10 (0 no effect, 10 complete control)
[9] = Rate 125 g/ha, Postemergence section (flood test species), scale 0 to 10, 0 no effect, 10 complete control
[10] = Rate 500 g/ha, Postemergence section of Table B, 0 to 10 scale (0 no effect, 10 complete control)
[11] = flood test, listed under Postemergence, Rate 250 g/ha, scale 0 to 10, 0 no effect, 10 complete control

## CC(C)N(C(=O)n1oc(=O)n(-c2ccccc2Cl)c1=O)c1ccc(F)cc1 [Compound 8]
rape; [1]
  Rape plant response rating: 0
rape; [2]
  Rape plant response rating: 0
rape; [3]
  Plant response rating, Rape: 0
rape; [4]
  Plant response rating, Rape: 0
rape; [5]
  Rape plant response rating: 0
rape; [6]
  Rape plant response rating: 0
rape; [7]
  Rape plant response rating: 0
rape; [8]
  Plant response rating, Rape: 0
wheat; [1]
  Wheat plant response rating: 0
wheat; [2]
  Wheat plant response rating: 3
wheat; [3]
  Plant response rating, Wheat: 0
wheat; [4]
  Plant response rating, Wheat: 0
wheat; [5]
  Wheat plant response rating: 0
wheat; [6]
  Wheat plant response rating: 0
wheat; [8]
  Plant response rating, Wheat: 0
cocklebur; [1]
  Cocklebur plant response rating: 0
cocklebur; [2]
  Cocklebur plant response rating: 2
cocklebur; [3]
  Plant response rating, Cocklebur: 0
cocklebur; [4]
  Plant response rating, Cocklebur: 0
cocklebur; [5]
  Cocklebur plant response rating: 0
cocklebur; [6]
  Cocklebur plant response rating: 0
cocklebur; [7]
  Cocklebur plant response rating: 1
cocklebur; [8]
  Plant response rating, Cocklebur: 0
corn; [1]
  Corn plant response rating: 0
corn; [2]
  Corn plant response rating: 3
corn; [3]
  Plant response rating, Corn: 0
corn; [4]
  Plant response rating, Corn: 0
corn; [5]
  Corn plant response rating: 0
corn; [6]
  Corn plant response rating: 0
corn; [7]
  Corn plant response rating: 0
corn; [8]
  Plant response rating, Corn: 3
bamyardgrass; [2]
  Barnyardgrass plant response rating: 0
bamyardgrass; [9]
  Barnyardgrass plant response rating: 0
bamyardgrass; [10]
  Barnyardgrass plant response rating: 0
bamyardgrass; [11]
  Barnyardgrass plant response rating: 0
Giant foxtail; [1]
  Giant foxtail plant response rating: 0
Giant foxtail; [2]
  Giant foxtail plant response rating: 4
Giant foxtail; [3]
  Plant response rating, Giant foxtail: 5
Giant foxtail; [4]
  Plant response rating, Giant foxtail: 9
Giant foxtail; [5]
  Giant foxtail plant response rating: 10
Giant foxtail; [6]
  Giant foxtail plant response rating: 0
Giant foxtail; [7]
  Giant foxtail plant response rating: 2
Giant foxtail; [8]
  Plant response rating, Giant foxtail: 10
crabgrass; [1]
  Crabgrass plant response rating: 0
crabgrass; [2]
  Crabgrass plant response rating: 6
crabgrass; [5]
  Crabgrass plant response rating: 6
crabgrass; [6]
  Crabgrass plant response rating: 0
crabgrass; [7]
  Crabgrass plant response rating: 0
crabgrass; [8]
  Plant response rating, Crabgrass: 9
velvetleaf; [1]
  Velvetleaf plant response rating: 0
velvetleaf; [2]
  Velvetleaf plant response rating: 1
velvetleaf; [3]
  Plant response rating, Velvetleaf: 0
velvetleaf; [5]
  Velvetleaf plant response rating: 0
velvetleaf; [6]
  Velvetleaf plant response rating: 0
velvetleaf; [8]
  Plant response rating, Velvetleaf: 4
bedstraw; [1]
  Bedstraw plant response rating: 2
bedstraw; [2]
  Bedstraw plant response rating: 3
bedstraw; [3]
  Plant response rating, Bedstraw: 0
bedstraw; [4]
  Plant response rating, Bedstraw: 0
bedstraw; [5]
  Bedstraw plant response rating: 0
bedstraw; [6]
  Bedstraw plant response rating: 2
bedstraw; [7]
  Bedstraw plant response rating: 3
bedstraw; [8]
  Plant response rating, Bedstraw: 0
morningglory; [1]
  Morningglory plant response rating: 0
morningglory; [2]
  Morningglory plant response rating: 6
morningglory; [3]
  Plant response rating, Morningglory: 0
morningglory; [4]
  Plant response rating, Morningglory: 0
morningglory; [5]
  Morningglory plant response rating: 0
morningglory; [6]
  Morningglory plant response rating: 0
morningglory; [7]
  Morningglory plant response rating: 2
morningglory; [8]
  Plant response rating, Morningglory: 0
pigweed; [1]
  Redroot pigweed plant response rating: 0
pigweed; [2]
  Redroot pigweed plant response rating: 5
pigweed; [3]
  Plant response rating, Redroot pigweed: 4
pigweed; [4]
  Plant response rating, Redroot pigweed: 5
pigweed; [5]
  Redroot pigweed plant response rating: 5
pigweed; [6]
  Redroot pigweed plant response rating: 0
pigweed; [7]
  Redroot pigweed plant response rating: 0
pigweed; [8]
  Plant response rating, Redroot pigweed: 7
Wild oat; [1]
  Wild oats plant response rating: 0
Wild oat; [2]
  Wild oats plant response rating: 3
Wild oat; [3]
  Plant response rating, Wild oats: 0
Wild oat; [4]
  Plant response rating, Wild oats: 0
Wild oat; [5]
  Wild oats plant response rating: 2
Wild oat; [6]
  Wild oats plant response rating: 0
Wild oat; [8]
  Plant response rating, Wild oats: 3
Sugar beet; [1]
  Sugarbeets plant response rating: 0
Sugar beet; [2]
  Sugarbeets plant response rating: 2
Sugar beet; [3]
  Plant response rating, Sugarbeets: 0
Sugar beet; [4]
  Plant response rating, Sugarbeets: 0
Sugar beet; [5]
  Sugarbeets plant response rating: 0
Sugar beet; [6]
  Sugarbeets plant response rating: 0
Sugar beet; [8]
  Plant response rating, Sugarbeets: 0
Surinam grass; [1]
  B. signalgrass plant response rating: 0
Surinam grass; [2]
  B. signalgrass plant response rating: 3
Surinam grass; [3]
  Plant response rating, B. signalgrass: 0
Surinam grass; [4]
  Plant response rating, B. signalgrass: 4
Surinam grass; [5]
  B. signalgrass plant response rating: 5
Surinam grass; [6]
  B. signalgrass plant response rating: 0
Surinam grass; [7]
  B. signalgrass plant response rating: 0
Surinam grass; [8]
  Plant response rating, B. signalgrass: 6
rice; [2]
  Rice plant response rating: 0
rice; [9]
  Rice plant response rating: 0
rice; [10]
  Rice plant response rating: 0
rice; [11]
  Rice plant response rating: 0
Smallflower flatsedge; [2]
  S. Flatsedge plant response rating: 0
Smallflower flatsedge; [9]
  S. Flatsedge plant response rating: 0
Smallflower flatsedge; [11]
  S. Flatsedge plant response rating: 0
soybean; [1]
  Soybean plant response rating: 4
soybean; [2]
  Soybean plant response rating: 5
soybean; [3]
  Plant response rating, Soybean: 0
soybean; [4]
  Plant response rating, Soybean: 0
soybean; [5]
  Soybean plant response rating: 0
soybean; [6]
  Soybean plant response rating: 3
soybean; [8]
  Plant response rating, Soybean: 0
Purple nutsedge; Rate 125 g/ha, scale 0 to 10 (0 no effect, 10 complete control)
  Plant response rating, Nutsedge: 0
Purple nutsedge; Rate 250 g/ha, scale of 0 to 10 where 0 is no effect and 10 is complete control
  Plant response rating, Nutsedge: 0
Purple nutsedge; Rate 500 g/ha, scale 0 (no effect) to 10 (complete control)
  Nutsedge plant response rating: 0
Purple nutsedge; Rate 1000 g/ha, scale 0 to 10 (0 no effect, 10 complete control)
  Plant response rating, Nutsedge: 0
blackgrass; [1]
  Blackgrass plant response rating: 2
blackgrass; [2]
  Blackgrass plant response rating: 5
blackgrass; [3]
  Plant response rating, Blackgrass: 0
blackgrass; [4]
  Plant response rating, Blackgrass: 0
blackgrass; [5]
  Blackgrass plant response rating: 0
blackgrass; [6]
  Blackgrass plant response rating: 0
blackgrass; [7]
  Blackgrass plant response rating: 2
blackgrass; [8]
  Plant response rating, Blackgrass: 4
Duck salad; [2]
  Ducksalad plant response rating: 0
Duck salad; [9]
  Ducksalad plant response rating: 0
Duck salad; [10]
  Ducksalad plant response rating: 0
Duck salad; [11]
  Ducksalad plant response rating: 0
